What was measured:
K7M2 OS cell line [1] = experiment: 2D growth / cytotoxicity by MTT, K7M2; assay type: cell-based, mouse
Experimental: The number of viable cells present in 2D culture was determined by MTT as previously reported. Briefly, cells were plated in 96-well plates at 2,000 cells/well and incubated at 37° C. for 24 h. […] After 72 h, MTT reagent (20 L/well of a 5 mg/mL stock solution in sterile water; Sigma, St. Louis, MO) was added to each well and the plate was incubated at 37° C. for 2 h. DMSO ([…]) was then added to each well to solubilize the formazan crystals.
(§1) The resulting absorbance was measured at 490 nm via plate reader (Molecular Devices, San Jose, CA). DMSO (0.1%) was used as vehicle control, while 20 μM rapamycin was used as a positive cell-kill control. The experimental conditions were conducted in triplicate and each experiment was repeated three times. Regression lines and IC50's were calculated using a four-parameter variable slope nonlinear fit in GraphPad Prism.

MG63.3 OS cell line [2] = experiment: in vitro 3D BME assay with MG63.3 OS cell line; assay type: cell-based, human; conditions: MG63.3, Day 6 MTS, at or below 1 μM
Source text: (§2) 3D basement membrane extract (BME) assay was developed at the NCI Barkan (D. Barkan et al. 2008; Dalit Barkan and Green 2011; Hen and Barkan 2020). BME is purified from Engelbreth-Holm-Swarm (EHS) tumor, primarily made up of laminin, collagen IV, entactin, and heparin sulfate proteoglycans (Cultrex Reduced Growth Factor Basement Membrane Extract, PathClear n.d.), which allows it to more accurately reflect the 3D extracellular environment in the body.
(§3) Initially >150 selected therapeutic agents were tested on BME based on the likelihood for either a positive effect or a […] negative effect (as negative controls). […] These therapeutic agents were also tested in dose response (as broad as 1 pM-100 μM) for 2D cytotoxicity (MTT) and the IC50 was calculated. Where required, the hits from the initial screen were also further characterized at additional doses <100 nM in order to further determine the relative selectivity compared to the 2D IC50.
(§4) The influence of drug exposure on the metastatic phenotype was assessed in an in vitro assay of ME and escape from dormancy using a 3D BME assay as previously reported, which was adapted for use with OS cells.
(§5) Cultrex® PathClear, Reduced Growth Factor Basement Membrane Extract (BME—Bio-Techne, Minneapolis, MN) was added ([…]) to a 96-well plate and allowed to gel by incubating at 37° C. for ≥30 min. Cells were harvested, washed with DMEM (no glucose, no FBS, Gibco, Grand Island, NY) and centrifuged at 1500 g×5 mins. The media was aspirated and the remaining cell pellet flicked for about 10 s to ensure disaggregation.
(§6) Cells were diluted in assay media containing 2% BME, resuspended vigorously and 150 μL of the cell suspension was added on top of the gelled 3D BME layer. […] Cell numbers were determined in control vehicle (cells in media+0.1% DMSO), or treated wells and were measured on the indicated days by addition of 20 μL/well of MTS reagent (Cell Titer 96 Aqueous One, Promega, Madison, WI), followed by incubation at 37° C. for 2 h and absorbance measurements at 490 nm via plate reader (Molecular Devices, San Jose CA).
(§7) All conditions were conducted in quadruplicate and each experiment was carried out at least 3 separate times. All comparisons were made between treatment and vehicle control at concordant time points. Statistical analyses and non-linear regressions were derived using GraphPad Prism statistical software.

MG63.3 OS cell line [3] = experiment: 2D growth / cytotoxicity by MTT, MG63.3; conditions: MG63.3, MTT, exposures up to 1 μM / assessed exposures
Experimental: The number of viable cells present in 2D culture was determined by MTT as previously reported. Briefly, cells were plated in 96-well plates at 2,000 cells/well and incubated at 37° C. for 24 h. After 24 h, the media was replaced with fresh media containing drugs at the desired concentrations (10 pM-10 μM) and incubated at 37° C. for 72 h. After 72 h, MTT reagent (20 L/well of a 5 mg/mL stock solution in sterile water; Sigma, St. Louis, MO) was added to each well and the plate was incubated at 37° C. for 2 h. DMSO ([…]) was then added to each well to solubilize the formazan crystals.
as §1

K7M2 OS cell line [4] = experiment: in vitro 3D BME assay with K7M2 OS cell line; assay type: cell-based, mouse; conditions: K7M2, Day 6 MTS, at or below 1 μM
Source text: as §2, §3, §4, §5, §6, §7

JAK1 = JAK1 (Homo sapiens, UniProt P23458); conditions: cited from earlier work
JAK1, sequence (P23458 whole entry, species assumed): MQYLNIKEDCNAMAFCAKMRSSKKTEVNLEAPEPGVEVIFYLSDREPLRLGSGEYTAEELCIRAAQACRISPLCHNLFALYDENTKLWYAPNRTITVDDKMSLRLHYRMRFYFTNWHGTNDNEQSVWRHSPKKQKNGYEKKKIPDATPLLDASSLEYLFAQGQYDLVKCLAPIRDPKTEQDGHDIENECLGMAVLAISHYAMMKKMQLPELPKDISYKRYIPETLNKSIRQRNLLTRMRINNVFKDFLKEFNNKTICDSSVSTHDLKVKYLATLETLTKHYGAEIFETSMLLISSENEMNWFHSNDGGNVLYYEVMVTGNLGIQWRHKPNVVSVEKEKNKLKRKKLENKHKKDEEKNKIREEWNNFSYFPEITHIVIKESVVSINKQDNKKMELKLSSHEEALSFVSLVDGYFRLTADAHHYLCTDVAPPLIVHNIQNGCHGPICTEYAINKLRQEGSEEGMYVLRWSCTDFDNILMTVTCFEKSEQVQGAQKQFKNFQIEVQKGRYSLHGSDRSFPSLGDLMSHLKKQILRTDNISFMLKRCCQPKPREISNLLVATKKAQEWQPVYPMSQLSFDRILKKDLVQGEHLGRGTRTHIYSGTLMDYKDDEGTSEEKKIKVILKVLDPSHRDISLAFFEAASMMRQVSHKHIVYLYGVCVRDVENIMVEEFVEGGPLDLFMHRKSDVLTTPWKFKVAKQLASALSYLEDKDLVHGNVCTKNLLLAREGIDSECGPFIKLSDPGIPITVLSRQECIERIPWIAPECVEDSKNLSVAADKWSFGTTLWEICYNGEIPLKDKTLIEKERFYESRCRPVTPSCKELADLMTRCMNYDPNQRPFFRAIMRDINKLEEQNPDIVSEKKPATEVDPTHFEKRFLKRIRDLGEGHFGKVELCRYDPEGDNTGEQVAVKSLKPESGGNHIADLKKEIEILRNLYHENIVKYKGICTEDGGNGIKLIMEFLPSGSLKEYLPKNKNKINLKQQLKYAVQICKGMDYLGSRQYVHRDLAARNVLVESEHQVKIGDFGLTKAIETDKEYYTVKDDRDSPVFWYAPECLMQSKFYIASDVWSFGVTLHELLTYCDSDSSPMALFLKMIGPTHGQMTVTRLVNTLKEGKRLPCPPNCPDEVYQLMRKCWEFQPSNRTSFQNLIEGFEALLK

CNS(=O)(=O)C[C@H]1CC[C@H](N(C)c2ncnc3[nH]ccc23)CC1 [oclacitinib]
non-cytotoxic drug exposures in 2D (K7M2 OS cell line [1]; K7M2, MTT 72 h, 10 pM-100 μM): below 1 μM | effect on cell number in 2D monolayer (K7M2 OS cell line [1]; K7M2, MTT, exposures up to 1 μM): minimal inhibition of OS cell number | effect on metastatic phenotype / 3D growth in 3D BME (words) (MG63.3 OS cell line [2]): did not inhibit MG63.3 cells at any dose | effect on metastatic phenotype / 3D growth in 3D BME (words) (MG63.3 OS cell line [2]; listed as Oclacitinib): no significant effect | effect on cell number in 2D monolayer (MG63.3 OS cell line [3]): minimal inhibition of OS cell number | effect on metastatic phenotype / 3D growth in 3D BME (words) (K7M2 OS cell line [4]): statistically significant but very minimal inhibition | effect on metastatic phenotype / 3D growth in 3D BME (words) (K7M2 OS cell line [4]; listed as Oclacitinib): statistically significant but very small level of inhibition | inhibitory action against JAK1 relative to JAK2 (JAK1): 1.8 times | inhibitory action against JAK1 relative to JAK3 (JAK1): 9.9 times

— patent US20250161287A1, “METHODS, COMPOSITIONS, AND COMBINATIONS FOR PREVENTING OR TREATING CANCER RECURRENCE” (VUJA DE SCIENCES, INC., priority 2022, published 2025)
